Measurements taken from patent US7595156B2 (priority 2003, dated 2009).

Experiments:
[1] = system: mosquito larva; settings: background statement, Liang and Zhou 1987; cited from earlier work
[2] = background statement, Liang and Zhou 1987; cited from earlier work
[3] = system: Saccharomyces cerevisiae; assay: Antifungal activity test, growth inhibition zones; type: cell-based; settings: activity of the CS101 and CS102 culture mediums attributed to the variants produced in the mutant strains; FIG. 7
Protocol: FR-008 mutant strains CS101 and CS102 were added (see, FIG. 7). In FIG. 7, the left turbid zone is a zone added with Streptomyces sp. FR-008, the middle is a zone added with the mutant strain CS101, and the right is a zone added with the mutant strain CS102. […] This is caused by the polyketide variants V, VI, VIII, IX, X, XI and XII, which are produced in the mutant strains.

SMILES	toxicity against mosquito larva [1]	antifungal activity [2]	antifungal activity of polyketide variants [3]
C[C@H](C[C@H](C)[C@@H]1OC(=O)CC(=O)CCCC(=O)C[C@@H](O)C[C@@H](O)C[C@@H](O)C[C@]2(O)C[C@H](O)[C@H](C(=O)O)[C@H](C[C@H](O[C@@H]3O[C@@H](C)[C@H](O)[C@@H](N)[C@H]3O)/C=C/C=C/C=C/C=C/C=C/C=C/C=C/[C@@H]1C)O2)[C@H](O)CC(=O)c1ccc(N)cc1 [FR-008 polyketide]	high toxicity	antifungal activity	
C[C@H](C[C@H](C)[C@@H]1OC(=O)CC(=O)CCCC(=O)CCC[C@@H](O)C[C@@H](O)CC(=O)C[C@H](O)[C@H](C(=O)O)[C@@H](O)C[C@H](O[C@@H]2O[C@@H](C)[C@H](O)C(=O)[C@H]2O)/C=C/C=C/C=C/C=C/C=C/C=C/C=C/[C@@H]1C)[C@H](O)CC(=O)c1ccc(N)cc1 [polyketide XII]			antifungal activity
